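Five compound concentrations were applied to cells in 96-well plates for 48 hours; endpoints were derived by simple linear interpolation of the resulting dose-response curve. TGI: total growth inhibition.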
Assays:
Assay in all cases: NCI tumour cell line growth inhibition, 48 h
NCI-H226 lung = tested on: NCI-H226 lung
NCI/ADR-RES ovarian = tested on: NCI/ADR-RES ovarian
EKVX NSCLC = tested on: EKVX NSCLC
MCF7 breast = tested on: MCF7 breast
KM20L2 colon = tested on: KM20L2 colon
NCI-H460 lung = tested on: NCI-H460 lung
SN12K1 renal = tested on: SN12K1 renal
A549 NSCLC = tested on: A549 NSCLC
M19-MEL melanoma = tested on: M19-MEL melanoma
P388/ADR leukemia = tested on: P388/ADR leukemia
HOP-92 NSCLC = tested on: HOP-92 NSCLC
P388 leukemia = tested on: P388 leukemia
HOP-18 NSCLC = tested on: HOP-18 NSCLC
HCT-15 colon = tested on: HCT-15 colon
CCRF-CEM leukemia = tested on: CCRF-CEM leukemia
TK-10 renal = tested on: TK-10 renal
HOP-62 NSCLC = tested on: HOP-62 NSCLC
ACHN renal = tested on: ACHN renal
LXFL 529 NSCLC = tested on: LXFL 529 NSCLC
M14 melanoma = tested on: M14 melanoma

Row | SMILES | TGI (NCI-H226 lung) [µM] | TGI (NCI/ADR-RES ovarian) [µM] | TGI (EKVX NSCLC) [µM] | TGI (MCF7 breast) [µM] | TGI (KM20L2 colon) [µM] | TGI (NCI-H460 lung) [µM] | TGI (SN12K1 renal) [µM] | TGI (A549 NSCLC) [µM] | TGI (M19-MEL melanoma) [µM] | TGI (P388/ADR leukemia) [µM] | TGI (HOP-92 NSCLC) [µM] | TGI (P388 leukemia) [µM] | TGI (HOP-18 NSCLC) [µM] | TGI (HCT-15 colon) [µM] | TGI (CCRF-CEM leukemia) [µM] | TGI (TK-10 renal) [µM] | TGI (HOP-62 NSCLC) [µM] | TGI (ACHN renal) [µM] | TGI (LXFL 529 NSCLC) [µM] | TGI (M14 melanoma) [µM]
1 | CC(C)=CCc1c(O)ccc2ccc(=O)oc12 | > 100 | > 31.6 | > 100 | > 100 | > 100 | > 100 | > 100 | > 100 | > 100 | > 100 | 94.6 | > 100 | > 100 | > 100 | > 100 | – | – | – | – | –
2 | O=C(CC(=O)c1ccccc1)CC(O)(c1ccccc1)c1ccccc1 | – | – | – | – | 19.5 | 16.3 | – | – | 13.9 | – | 19.5 | – | – | 23 | 26 | 42.1 | 12 | 24.5 | 17 | 14.9
3 | COc1cc(/C=C/C(=O)O)ccc1C(=O)OCc1ccccc1 | > 100 | > 100 | > 100 | > 100 | > 100 | > 100 | > 100 | > 100 | > 100 | > 100 | > 100 | > 100 | > 100 | > 100 | > 100 | – | > 100 | – | – | –
4 | COC(=O)CN(C)P(=O)(N1CC1)N1CC1 | – | – | > 100 | – | > 100 | – | – | > 100 | – | – | – | – | – | > 100 | > 100 | > 100 | – | > 100 | > 100 | > 100
